{"source": "patent US10829452B2", "about": "“Histone methyltransferase inhibitors” (GLOBAL BLOOD THERAPEUTICS, INC., priority 2016, dated 2020)", "target": "T1, G9a (Homo sapiens, UniProt Q96KQ7)", "T1 sequence (Q96KQ7 1-1210)": "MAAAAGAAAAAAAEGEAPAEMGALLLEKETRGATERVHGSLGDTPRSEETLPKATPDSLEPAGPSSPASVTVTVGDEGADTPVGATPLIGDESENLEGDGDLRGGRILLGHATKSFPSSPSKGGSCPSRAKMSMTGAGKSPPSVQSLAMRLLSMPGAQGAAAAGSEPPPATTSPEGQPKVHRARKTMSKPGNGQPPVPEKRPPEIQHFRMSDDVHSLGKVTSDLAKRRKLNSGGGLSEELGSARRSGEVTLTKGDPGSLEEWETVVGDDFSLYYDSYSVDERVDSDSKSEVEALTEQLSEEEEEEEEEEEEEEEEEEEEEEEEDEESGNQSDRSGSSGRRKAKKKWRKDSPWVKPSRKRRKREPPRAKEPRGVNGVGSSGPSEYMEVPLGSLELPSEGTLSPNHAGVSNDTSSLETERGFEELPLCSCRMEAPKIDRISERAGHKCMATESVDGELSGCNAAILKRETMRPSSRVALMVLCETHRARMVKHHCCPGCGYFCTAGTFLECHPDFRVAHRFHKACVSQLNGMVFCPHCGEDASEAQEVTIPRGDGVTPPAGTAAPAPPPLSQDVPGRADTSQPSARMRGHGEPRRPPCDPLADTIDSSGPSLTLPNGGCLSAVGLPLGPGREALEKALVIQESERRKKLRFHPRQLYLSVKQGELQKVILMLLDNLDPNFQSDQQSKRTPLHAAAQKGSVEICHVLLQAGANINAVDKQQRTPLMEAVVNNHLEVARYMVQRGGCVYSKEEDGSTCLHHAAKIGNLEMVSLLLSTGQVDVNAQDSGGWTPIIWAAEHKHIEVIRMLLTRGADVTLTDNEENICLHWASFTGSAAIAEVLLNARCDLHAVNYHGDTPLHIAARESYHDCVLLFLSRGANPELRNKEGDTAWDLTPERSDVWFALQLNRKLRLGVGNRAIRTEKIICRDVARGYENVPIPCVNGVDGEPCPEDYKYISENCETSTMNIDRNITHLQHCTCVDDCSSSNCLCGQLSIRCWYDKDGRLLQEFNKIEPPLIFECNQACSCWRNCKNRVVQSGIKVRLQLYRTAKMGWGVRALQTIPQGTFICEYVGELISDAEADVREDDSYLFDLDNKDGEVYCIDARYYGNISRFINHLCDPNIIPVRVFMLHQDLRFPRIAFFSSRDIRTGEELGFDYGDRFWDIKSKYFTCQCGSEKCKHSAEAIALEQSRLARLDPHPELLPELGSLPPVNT", "test": "G9a AlphaLISA enzymatic activity assay", "format": "biochemical", "settings": "0.15 nM G9a, 15 uM S-adenosyl-methionine, 100 nM biotinylated histone 3 peptide (1-21), 1 hour at room temperature; read-out: G9a in (uM) (IC50, concentration that produced 50% inhibition)", "excerpt": "The G9a AlphaLISA assay was used to detect the methyl modifications of a biotinylated histone H3 peptide by the compounds. These modifications are done by the histone methyl transferase activity of the G9a enzyme. The assay consists of reading a chemiluminescent signal at 615 nm; this signal is generated by a laser excitation at 680 nm that transfers a reactive singlet oxygen between the donor beads and acceptor beads. Donor beads are streptavidin conjugated and bind to the biotin on the peptide. Acceptor beads are conjugated with an antibody that recognizes the specific G9a methyl mark on the peptide. If there is a methyl mark on the peptide, the acceptor beads will bind to the peptide. Upon binding, the acceptor beads will be in close proximity (<200 nm) of the donor beads and when the donor beads are excited, the transfer of the oxygen can occur and a strong signal will be generated. If there is no methyl mark, the interaction between beads will not occur and signal will be at background levels.\nFor the assay, the following buffer was used to set up reactions: 50 mM Tris-HCl pH9, 50 mM NaCl, 0.01% Tween-20 and 1 mM DTT (added fresh prior to starting the reactions). The assay is set up by adding a final concentration of 0.15 nM G9a, 15 uM S-adenosyl-methionine and, 100 nM biotinylated histone 3 peptide (1-21). The reaction is incubated at room temperature for 1 hour, and subsequently quenched by the addition of the acceptor beads (anti-H3k9me2 AlphaLISA acceptor beads, PerkinElmer # AL117) at a final concentration of 20 ug/mL. The acceptor beads are incubated for 1 hour. After 1 hour, the donor beads are added at a final concentration of 20 ug/mL (Alpha Streptavidin donor beads, PerkinElmer #6760002). Donor beads are incubated for 0.5 hours. Both donor and acceptor beads are resuspended in AlphaLISA 5X Epigenetics Buffer 1 Kit (PerkinElmer # AL008) prior to addition to the reaction. All manipulations and incubations with the donor and acceptor beads are done in subdued light. Signal is detected in an EnVision plate reader in Alpha mode (see ACS Med Chem Lett. 2014 Jan. 2; 5(2):205-9. doi: 10.1021/m1400496h. eCollection 2014. Discovery and development of potent and selective inhibitors of histone methyltransferase g9a.)\nPercent inhibition was calculated for each compound dilution and the concentration that produced 50% inhibition was calculated. This value is presented as the IC50.", "note": "Structures can show the parent of a compound that is named as a salt.", "data": [{"compound": "COc1cc2c3c(c(NC(C)C)nc2cc1OCCCN1CCCC1)CCN3", "note": "[Example 23, 8-methoxy-N-(propan-2-yl)-7-[3-(pyrrolidin-1-yl)propoxy]-1H,2H,3H-pyrrolo[3,2c]-quinolin-4-amine trifluoroacetate]", "values": [{"measurement": "IC50", "result": 0.003, "unit": "µM"}]}, {"compound": "CNc1nc2cc(OCCCN3CCCC3)c(OC)cc2c2c1CC(C)(C)N2", "note": "[Example 24, 8-methoxy-N,2,2-trimethyl-7-[3-(pyrrolidin-1-yl)propoxy]-1H,2H,3H-pyrrolo[3,2-c]quinolin-4-amine trifluoroacetate]", "values": [{"measurement": "IC50", "result": 0.006, "unit": "µM"}]}, {"compound": "COc1cc2c3c(c(NC(C)C)nc2cc1OCCCN1CCCC1)CC(C)(C)N3", "note": "[Example 25, 8-methoxy-2,2-dimethyl-N-(propan-2-yl)-7-[3-(pyrrolidin-1-yl)propoxy]-1H,2H,3H-pyrrolo[3,2-c]quinolin-4-amine trifluoroacetate]", "values": [{"measurement": "IC50", "result": 0.005, "unit": "µM"}]}, {"compound": "CNc1nc2cc(OCCCN3CCCC3)c(OC)cc2c2c1CCCN2", "note": "[Example 26, 9-methoxy-N-methyl-8-[3-(pyrrolidin-1-yl)propoxy]-1H,2H,3H,4H-benzo[h]1,6-naphthyridin-5-amine formate]", "values": [{"measurement": "IC50", "result": 0.004, "unit": "µM"}]}, {"compound": "COc1cc2c3c(c(NC(C)C)nc2cc1OCCCN1CCCC1)CCCN3", "note": "[Example 27, 9-methoxy-N-(propan-2-yl)-8-[3-(pyrrolidin-1-yl)propoxy]-1H,2H,3H,4H-benzo[h]1,6-naphthyridin-5-amine trifluoroacetate]", "values": [{"measurement": "IC50", "result": 0.006, "unit": "µM"}]}, {"compound": "COc1cc2c3c(c(C)nc2cc1OCCCN1CCCC1)CCCN3", "note": "[Example 28, 1-[3-({9-methoxy-5-methyl-1H,2H,3H,4H-benzo[h]1,6-naphthyridin-8-yl}oxy)propyl]pyrrolidine trifluoroacetate]", "values": [{"measurement": "IC50", "result": 0.006, "unit": "µM"}]}, {"compound": "CNc1nc2cc(OCCCN3CCCC3)c(OC)cc2c2c1CCC(C)N2", "note": "(stereo not shown) [Example 29, 9-methoxy-N,2-dimethyl-8-[3-(pyrrolidin-1-yl)propoxy]-1H,2H,3H,4H-benzo[h]1,6-naphthyridin-5-amine formate]", "values": [{"measurement": "IC50", "result": 0.009, "unit": "µM"}]}, {"compound": "COc1cc2c3c(c(NC(C)C)nc2cc1OCCCN1CCCC1)CCC(C)N3", "note": "(stereo not shown) [Example 30, 9-methoxy-2-methyl-N-(propan-2-yl)-8-[3-(pyrrolidin-1-yl)propoxy]-1H,2H,3H,4H-benzo[h]1,6-naphthyridin-5-amine formate]", "values": [{"measurement": "IC50", "result": 0.008, "unit": "µM"}]}, {"compound": "COc1cc2c3c(c(C)nc2cc1OCCCN1CCCC1)CCC(C)N3", "note": "(stereo not shown) [Example 31, 1-[3-({9-methoxy-2,5-dimethyl-1H,2H,3H,4H-benzo[h]1,6-naphthyridin-8-yl}oxy)propyl]pyrrolidine trifluoroacetate]", "values": [{"measurement": "IC50", "result": 0.009, "unit": "µM"}]}, {"compound": "COc1cc2c3c(c(C4CC4)nc2cc1OCCCN1CCCC1)CCC(C)N3", "note": "(stereo not shown) [Example 32, 1-[3-({5-cyclopropyl-9-methoxy-2-methyl-1H,2H,3H,4H-benzo[h]1,6-naphthyridin-8-yl}oxy)propyl]pyrrolidine trifluoroacetate]", "values": [{"measurement": "IC50", "result": 0.022, "unit": "µM"}]}, {"compound": "CNc1nc2cc(OCCCN3CCCC3)c(OC)cc2c2c1CCCCN2", "note": "[Example 33, 10-methoxy-N-methyl-9-[3-(pyrrolidin-1-yl)propoxy]-1H,2H,3H,4H,5H-azepino[3,2-c]quinolin-6-amine formate]", "values": [{"measurement": "IC50", "result": 0.012, "unit": "µM"}]}, {"compound": "COc1cc2c3c(c(NC(C)C)nc2cc1OCCCN1CCCC1)CCCCN3", "note": "[Example 34, 10-methoxy-N-(propan-2-yl)-9-[3-(pyrrolidin-1-yl)propoxy]-1H,2H,3H,4H,5H-azepino[3,2-c]quinolin-6-amine formate]", "values": [{"measurement": "IC50", "result": 0.01, "unit": "µM"}]}, {"compound": "COc1cc2c3c(cnc2cc1OCCCN1CCCC1)CC(C)(C)N3", "note": "[Example 35, 1-[3-({8-methoxy-2,2-dimethyl-1H,2H,3H-pyrrolo[3,2-c]quinolin-7-yl}oxy)propyl]pyrrolidine formate]", "values": [{"measurement": "IC50", "result": 0.012, "unit": "µM"}]}, {"compound": "COc1cc2c3c(c(C4CC4)nc2cc1OCCCN1CCCC1)CC(C)(C)N3", "note": "[Example 36, 1-[3-({4-cyclopropyl-8-methoxy-2,2-dimethyl-1H,2H,3H-pyrrolo[3,2-c]quinolin-7-yl}oxy)propyl]pyrrolidine formate]", "values": [{"measurement": "IC50", "result": 0.009, "unit": "µM"}]}, {"compound": "COc1cc2c3c(c(O)nc2cc1OCCCN1CCCC1)CCC3", "note": "[Example 37, 8-methoxy-7-[3-(pyrrolidin-1-yl)propoxy]-1H,2H,3H-cyclopenta[c]quinolin-4-ol trifluoroacetate]", "values": [{"measurement": "IC50", "result": 1.3, "unit": "µM"}]}, {"compound": "COc1cc2c3c(c(O)nc2cc1OCCCN1CCCC1)CCCC3", "note": "[Example 38, 2-methoxy-3-[3-(pyrrolidin-1-yl)propoxy]-7,8,9,10-tetrahydrophenanthridin-6-ol trifluoroacetate]", "values": [{"measurement": "IC50", "result": 3, "unit": "µM"}]}, {"compound": "COc1cc2c3c(c(NC4CCN(C(C)C)CC4)nc2cc1OCCCN1CCCC1)CCCC3", "note": "[Example 39, 2-methoxy-N-[1-(propan-2-yl)piperidin-4-yl]-3-[3-(pyrrolidin-1-yl)propoxy]-7,8,9,10-tetrahydrophenanthridin-6-amine trifluoroacetate]", "values": [{"measurement": "IC50", "result": 3, "unit": "µM"}]}, {"compound": "COc1cc2c3c(cnc2cc1OCCCN1CCCC1)CCCC3", "note": "[Example 40, 2-methoxy-3-[3-(pyrrolidin-1-yl)propoxy]-7,8,9,10-tetrahydrophenanthridine trifluoroacetate]", "values": [{"measurement": "IC50", "result": 1.3, "unit": "µM"}]}, {"compound": "COc1cc2c3c(c(NC4CCN(C)CC4)nc2cc1OCCCN1CCCC1)CCC3", "note": "[Example 41, N-{8-methoxy-7-[3-(pyrrolidin-1-yl)propoxy]-1H,2H,3H-cyclopenta[c]quinolin-4-yl}-1-methylpiperidin-4-amine formate]", "values": [{"measurement": "IC50", "result": 0.5, "unit": "µM"}]}, {"compound": "COc1cc2c3c(c(NC4CCN(C(C)C)CC4)nc2cc1OCCCN1CCCC1)CCC3", "note": "[Example 43, N-{8-methoxy-7-[3-(pyrrolidin-1-yl)propoxy]-1H,2H,3H-cyclopenta[c]quinolin-4-yl}-1-(propan-2-yl)piperidin-4-amine formate]", "values": [{"measurement": "IC50", "result": 1.7, "unit": "µM"}]}, {"compound": "COc1cc2c3c(c(NC4COC4)nc2cc1OCCCN1CCCC1)CCC3", "note": "[Example 44, 8-methoxy-N-(oxetan-3-yl)-'7-[3-(pyrrolidin-1-yl)propoxy]-1H,2H,3H-cyclopenta[c]quinolin-4-amine formate]", "values": [{"measurement": "IC50", "result": 5.8, "unit": "µM"}]}, {"compound": "COc1cc2nc(NC(C)C)c3c(c2cc1OCCCN1CCCC1)COC3", "note": "[Example 45, 7-methoxy-N-(propan-2-yl)-8-[3-(pyrrolidin-1-yl)propoxy]-1H,3H-furo[3,4-c]quinolin-4-amine]", "values": [{"measurement": "IC50", "result": 4.3, "unit": "µM"}]}, {"compound": "COc1cc2c3c(c(NC(C)C)nc2cc1OCCCN1CCCC1)COC3", "note": "[Example 46, 8-methoxy-N-(propan-2-yl)-7-[3-(pyrrolidin-1-yl)propoxy]-1H,3H-furo[3,4-c]quinolin-4-amine]", "values": [{"measurement": "IC50", "result": 0.26, "unit": "µM"}]}, {"compound": "COc1cc2nc(NC3CC3)c3c(c2cc1OCCCN1CCCC1)COC3", "note": "[Example 47, N-cyclopropyl-7-methoxy-8-[3-(pyrrolidin-1-yl)propoxy]-1H,3H-furo[3,4-c]quinolin-4-amine]", "values": [{"measurement": "IC50", "result": 3.1, "unit": "µM"}]}, {"compound": "COc1cc2c3c(c(NC4CC4)nc2cc1OCCCN1CCCC1)COC3", "note": "[Example 48, N-cyclopropyl-8-methoxy-7-[3-(pyrrolidin-1-yl)propoxy]-1H,3H-furo[3,4-c]quinolin-4-amine]", "values": [{"measurement": "IC50", "result": 0.97, "unit": "µM"}]}]}
